{
  "source": "patent US20100119454A1",
  "about": "“Use of the conserved Drosophila NPFR1 system for uncovering interacting genes and pathways important in nociception and stress response” (priority 2008, published 2010)",
  "molecules": {"B1": {"name": "NPF: Drosophila neuropeptide F, sole fly homolog of human NPY; synthesized by Quality Controlled Biochemicals (SEQ ID NO: 5) (peptide)", "chain": "MCQTMRCILVACVALALLAAGCRVEASNSRPPRKNDVNTMADAYKFLQDLDTYYGDRARVRFGKRGSLMDILRNHEMDNINLGKNANNGGEFARGFNEEEIF", "modifications": "Drosophila melanogaster"}},
  "key": {"[1]": {"target": "T1, rat TRPV1 (Rattus norvegicus, UniProt O35433, E600K)", "T1 construct": "expressed in transfected cells; host or cells: HEK293 cells, transient transfection with pcDNA3.1D (Invitrogen) carrying TRPV1 (E600K) cDNA", "T1 sequence (O35433 whole entry E600K)": "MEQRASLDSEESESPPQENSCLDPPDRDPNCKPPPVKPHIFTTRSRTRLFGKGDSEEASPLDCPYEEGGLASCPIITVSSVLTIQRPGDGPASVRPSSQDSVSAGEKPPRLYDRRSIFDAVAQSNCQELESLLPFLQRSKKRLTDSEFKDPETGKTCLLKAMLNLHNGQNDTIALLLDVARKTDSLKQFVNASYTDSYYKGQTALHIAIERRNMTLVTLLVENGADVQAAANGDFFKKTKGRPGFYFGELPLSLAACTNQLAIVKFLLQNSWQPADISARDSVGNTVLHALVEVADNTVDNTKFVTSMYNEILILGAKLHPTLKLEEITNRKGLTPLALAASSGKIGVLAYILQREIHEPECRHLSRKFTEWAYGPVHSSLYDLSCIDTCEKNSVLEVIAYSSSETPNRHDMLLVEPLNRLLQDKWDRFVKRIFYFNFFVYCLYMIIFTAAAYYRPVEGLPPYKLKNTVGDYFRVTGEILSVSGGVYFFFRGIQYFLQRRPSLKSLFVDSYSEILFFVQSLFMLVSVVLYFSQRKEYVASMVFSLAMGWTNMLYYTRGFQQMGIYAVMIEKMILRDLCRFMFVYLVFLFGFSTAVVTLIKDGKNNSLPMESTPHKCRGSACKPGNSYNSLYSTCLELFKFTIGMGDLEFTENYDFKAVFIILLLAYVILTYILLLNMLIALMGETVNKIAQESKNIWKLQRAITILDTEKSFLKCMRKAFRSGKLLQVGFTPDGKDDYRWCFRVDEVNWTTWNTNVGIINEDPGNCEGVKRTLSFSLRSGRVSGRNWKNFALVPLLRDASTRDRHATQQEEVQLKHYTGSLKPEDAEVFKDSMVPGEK", "experiment": "Calcium imaging of HEK 293 cells (Fluo-4/Fura-red), capsaicin-induced Ca2+ influx", "type": "cell-based", "procedure": "Transfection and Calcium imaging of HEK 293 cells. HEK293 cells were maintained under standard conditions (37° C., 5% CO2) in Dulbecco's Modified Eagle's Medium (Mediatech) supplemented with 10% fetal bovine serum, penicillin and streptomycin. pcDNA3.1D directional expression system (Invitrogen) was used to clone and express rat TRPV1 and fly NPFR1 cDNA in HEK293 cells. TRPV1 cDNA was PCR amplified from TRPV1 (E600K) sequence (Marella et al., 2006), using the following primers: 5′ […] 3′ (SEQ ID NO: 11) and 5′ […] 3′ (SEQ ID NO: 12). NPFR1 cDNA was PCR amplified from an NPFR1 cDNA plasmid(34), using two primers: 5′ […] 3′ (SEQ ID NO: 13) and 5′ […] 3′ (SEQ ID NO: 14). HEK293 cells were cultured on 8-well polyornithine-coated chambered coverglasses (Nunc) for 24 hrs before transfection. A suspension of 200 μl of water containing 0.4 μg plasmid DNA and 0.8 μl of Lipofectamine 2000 (Invitrogen) was used for transfection. The amounts of TRPV1 and NPFR1 cNDA used were 20 ng and 200 ng, respectively. pcDNA3.1 vector DNA was supplemented, when necessary, to ensure the equal amount of total DNA per transfection.\nCalcium imaging was performed between 36-42 hours post transfection at 23° C. Cells were loaded with 1 μM Fluo-4 and 2 μM Fura-red (Invitrogen) for 90 min in Hanks' balanced salt solution (HBSS; Gibco), washed once with HBSS, and imaged using a Zeiss Axiovert 200M scope equipped with a Zeiss LSM 510 Meta laser scanning module. Dyes were excited at 488 nm with argon laser. Emission fluorescence was filtered by a BP505-530 and an LP585 filter. Images were collected for 300 s upon capsaicin stimulation at 1 frame s^−1, and analyzed with the SOARS analysis. NPF was synthesized by Quality Controlled Biochemicals. NPF and cyclic nucleotide analogs (Sigma) were pre-incubated at 23° C. with cells for 20-25 min before adding capsaicin."}, "[2]": {"system": "D. melanogaster post-feeding larvae", "experiment": "Larval food aversion (migration) assay on soft agar media", "type": "in vivo, Drosophila melanogaster", "procedure": "Behavioral Assays. The food aversion assay was performed in plastic petri dishes (60 mm in diameter). Each apple juice-agar plate contains a mix (ca. 7 ml) of 1 g of Drosophila agar powder (USB, Swampscott, Mass.) and 6 ml apple-juice solution (0.1 g carbohydrates per ml, equivalent to 20% of frozen concentrate). Other soft agar media were made by mixing 1 g agar powder with 6.5 ml of distilled water or solution containing 10% fructose, 10% lactose, 10% sorbitol or 50 μM capsaicin, respectively. The amount of agar powder may require adjustment depending on agar quality. Twenty-five new post-feeding larvae (96 h AEL) were transferred onto a plate. The larvae were allowed to move freely on the medium, and those that crawled onto the plastic surface became less mobile and eventually formed pupae there. The percent of pupae on agar media was scored after 24 hours. All experiments were performed at room temperature except for the temperature shift assay. In these experiments, larvae and food media were pre-incubated at 30° C. for 60 min before the assay. The larvae were subsequently transferred onto the medium and kept at 30° C. All assays were performed in the dark. At least three separate trials were performed per assay.\nBehavioral assays. The migration assay on soft agar media was performed as described previously (Xu et al., 2008), which is hereby incorporated by reference herein in its entirety. Twenty-five postfeeding larvae (96 h AEL) in one plate were allowed to move freely on the medium, and those that crawled onto the plastic surface became less mobile, and eventually formed pupae there. The percentage of pupae on agar media was scored after 24 hours. The clumping assay was also described in the following, which is hereby incorporated by reference herein in its entirety (Wu et al., 2003). Briefly, 45 mm petri dishes containing solid fructose agar (3% agar in a 10% fructose solution) were coated with a thin layer of yeast paste (0.5 g yeast powder in 10% fructose solution). Thirty larvae per plate were allowed to browse for 30 min, and those in clumps were scored immediately. The social burrowing assay was performed on solid agar media containing apple juice or 10% fructose, as described (Wu et al., 2003). All assays, unless stated otherwise, were performed at room temperature in the dark. At least three separate trials were performed per assay."}, "[3]": {"conditions": "HEK 293 cells, cyclic nucleotide analog pre-incubated 20-25 min before capsaicin"}},
  "data": [
    {"molecule": "Nc1nc2c(nc(Br)n2[C@@H]2O[C@@H]3COP(=O)(O)O[C@H]3[C@H]2O)c(=O)[nH]1", "note": "[8-Br-cGMP]", "values": [
      {"measurement": "effect on NPFR1 suppression of TRPV1", "setting": "[1]; HEK 293 cells expressing NPFR1 and TRPV1, in the presence of 8-Br-cGMP", "value": "significantly enhanced"},
      {"measurement": "effect on TRPV1 activity", "setting": "[1]; [3]", "value": "slightly reduced"}
    ]},
    {"molecule": "OC[C@H]1O[C@@](CO)(O[C@H]2O[C@H](CO)[C@@H](O)[C@H](O)[C@H]2O)[C@@H](O)[C@@H]1O", "note": "[sucrose]", "values": [
      {"measurement": "response of wild type larvae to sugar media", "setting": "[2]; 10% sugar media, wild type larvae (FIG. 2B)", "value": "aversive"}
    ]},
    {"molecule": "OC[C@@H](O)[C@@H](O)[C@H](O)[C@@H](O)CO", "note": "[sorbitol]", "values": [
      {"measurement": "triggering larval wandering", "setting": "[2]; 10% in soft agar paste, post-feeding larvae", "value": "not effective"}
    ]},
    {"molecule": "Nc1ncnc2c1nc(Br)n2[C@@H]1O[C@@H]2COP(=O)(O)O[C@H]2[C@H]1O", "note": "[8-Br-cAMP]", "values": [
      {"measurement": "effect on TRPV1-mediated Ca2+ influx", "setting": "[1]; [3]", "value": "significantly increased"}
    ]},
    {"molecule": "B1", "values": [
      {"measurement": "effect of NPF on response to capsaicin", "setting": "[1]; HEK293 cells co-transfected with NPFR1 and TRPV1 cDNAs, in the presence of NPF (1 mM per FIG. 15 legend), 400 nM capsaicin", "value": "drastically attenuated and delayed responses"},
      {"measurement": "effect of NPF on TRPV1 activity", "setting": "[1]; HEK293 cells transfected with TRPV1 cDNA alone", "value": "mild reduction"}
    ]}
  ]
}
